Assay results from article PMC10444810, “Induction of open-form bile canaliculus formation by hepatocytes for evaluation of biliary drug excretion” (Communications Biology, 2023).
Values joined by “and” are separate entries in the source; they are usually repeats but may differ in a detail not shown here. Equal values may be shown once.

Key:
CYP2B6 = molecular target: T1, CYP2B6 (Homo sapiens, UniProt P20813); test: Metabolic assay, cocktail substrate method (bupropion to hydroxybupropion); format: in vitro ADME; conditions: for Enzyme activity, Mean: mean of Well-1 to Well-4
T1 construct: host or cells: PXB-cells (icHep: JFC, HUM181001B; sandwich culture: JFC)
T1 sequence (P20813 1-491): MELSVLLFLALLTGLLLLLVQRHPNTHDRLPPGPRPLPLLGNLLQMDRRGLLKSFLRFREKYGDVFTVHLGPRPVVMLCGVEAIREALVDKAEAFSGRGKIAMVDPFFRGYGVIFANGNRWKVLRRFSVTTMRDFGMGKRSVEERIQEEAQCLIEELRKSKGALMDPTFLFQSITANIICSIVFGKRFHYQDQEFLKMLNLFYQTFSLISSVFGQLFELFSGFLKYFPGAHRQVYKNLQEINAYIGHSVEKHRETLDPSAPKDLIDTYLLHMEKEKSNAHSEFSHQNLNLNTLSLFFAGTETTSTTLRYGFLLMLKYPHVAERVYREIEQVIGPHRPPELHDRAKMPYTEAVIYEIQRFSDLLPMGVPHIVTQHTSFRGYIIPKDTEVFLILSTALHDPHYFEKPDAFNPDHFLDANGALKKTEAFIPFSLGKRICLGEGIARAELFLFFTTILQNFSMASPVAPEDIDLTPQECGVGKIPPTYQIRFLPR
Description: The metabolic activity of icHep and sandwich-cultured PXB-cells was measured using the cocktail substrate method of drug-metabolizing enzymes. The components of the cocktail are summarized in Supplementary Table 1. Assays were initiated by treating cells with TB containing cocktail substrates. Time point of each substrate was set when a linear increase in its metabolite production was observed. Concentrations of metabolites produced in the medium were measured by liquid chromatography-mass spectrometry (LC-MS/MS).

[1] = system: primary human hepatocytes / PXB-cells; test: Counting hepatocyte bile canaliculi opening to the culture equipment (hemi-lumen formation rate); format: cell-based
Description: Transwell^TM permeable support used was coated with 50 μg/ml rat tail collagen I (Corning) in 0.02 N acetic acid at room temperature for 1 h. Transwell^TM was washed twice with PBS, then the in vitro-synthesised claudin-1, -2, -3, and -9 proteins were applied to Transwell^TM at a density of 750 ng/cm^2 each and incubated at room temperature for 1 h. Transwell^TM was washed twice with PBS before seeding cells. Cryopreserved human hepatocytes (Donor ID. HU1663) were purchased from Thermo Fisher Scientific and thawed using CHRM. The hepatocytes were then diluted with WEM containing CM3000. PXB-cells (Donor ID. JFC, and HUM181001B) were obtained from PhoenixBio (Hiroshima, Japan) as described previously. […] PXB-cells were resuspended in 2% DMSO-supplemented hepatocyte growth medium (d-HCGM)[27]. Cryopreserved human hepatocytes and PXB-cells were seeded at a density of 2.1 × 10^5 cells/cm^2 in the protein-coated culture equipment. After 4 h of incubation, the culture medium was replaced with fresh culture medium to remove the unattached cells. After 24 h of incubation, the cells were cultured in d-HCGM supplemented with 250 μg/ml Matrigel. The spent medium was replaced with fresh medium every 3 days. Donor information for the human hepatocytes used is listed in Supplementary Table 2.
To count the open- and closed-type bile canaliculi, MRP2 immunostaining was performed using the Z-stack function of a confocal microscope (LSM710; Carl Zeiss, Oberkochen, Germany). Immunostaining was performed as previously described. The ratio of open-type bile canaliculi to the total number of bile canaliculi was calculated according to Eq. (1), and the value obtained was evaluated as the induction rate of open-type bile canaliculi. Here, Aopen bile canaliculi and Abile canaliculi indicate the number of open-type bile canaliculi and total number of bile canaliculi, respectively.1 Formationrate%=Aopenbilecanaliculi/Abilecanaliculi×100

C[C@H]1NC(C)(C)CO[C@]1(O)c1cccc(Cl)c1 [Hydroxybupropion]
Enzyme activity (CYP2B6; PXB-cells (JFC), incubation time 15 min, single wells): 28.7722 pmol/106 cells and 21.7302 pmol/106 cells and 27.8435 pmol/106 cells and 35.831 pmol/106 cells
Enzyme activity (CYP2B6; PXB-cells (JFC), incubation time 45 min, single wells): 59.3541 pmol/106 cells and 57.6847 pmol/106 cells and 69.4473 pmol/106 cells and 46.5889 pmol/106 cells
Enzyme activity (CYP2B6; PXB-cells (JFC), incubation time 60 min, single wells): 62.0864 pmol/106 cells and 73.8816 pmol/106 cells and 59.3241 pmol/106 cells and 58.6637 pmol/106 cells
Enzyme activity (CYP2B6; PXB-cells (JFC), incubation time 90 min, single wells): 76.5226 pmol/106 cells and 51.4054 pmol/106 cells and 51.8001 pmol/106 cells and 50.3819 pmol/106 cells
Enzyme activity, Mean (CYP2B6; PXB-cells (JFC)): 0.991 pmol/min/106 cells
Enzyme activity (CYP2B6; icHep (HUM18100B), incubation time 15 min, single wells): 25.5794 pmol/106 cells and 30.4047 pmol/106 cells and 24.7422 pmol/106 cells and 24.915 pmol/106 cells
Enzyme activity (CYP2B6; icHep (HUM18100B), incubation time 30 min, single wells): 35.9071 pmol/106 cells and 54.335 pmol/106 cells and 43.958 pmol/106 cells and 62.1937 pmol/106 cells
Enzyme activity (CYP2B6; icHep (HUM18100B), incubation time 45 min, single wells): 67.877 pmol/106 cells and 59.438 pmol/106 cells and 65.4881 pmol/106 cells and 59.5632 pmol/106 cells
Enzyme activity (CYP2B6; icHep (HUM18100B), incubation time 60 min, single wells): 76.2731 pmol/106 cells and 66.7099 pmol/106 cells and 66.2746 pmol/106 cells and 64.1847 pmol/106 cells
Enzyme activity (CYP2B6; icHep (HUM18100B), incubation time 90 min, single wells): 84.2201 pmol/106 cells and 81.8175 pmol/106 cells and 75.5651 pmol/106 cells and 70.6836 pmol/106 cells
Enzyme activity, Mean (CYP2B6; icHep (HUM18100B)): 1.22 pmol/min/106 cells
Enzyme activity (CYP2B6; icHep (HUM18100B), rate per single well): 1.41 pmol/min/106 cells and 0.968 pmol/min/106 cells and 1.36 pmol/min/106 cells and 1.15 pmol/min/106 cells
Enzyme activity (CYP2B6; icHep (JFC), incubation time 15 min, single wells): 26.9509 pmol/106 cells and 26.6361 pmol/106 cells and 28.1971 pmol/106 cells and 21.5678 pmol/106 cells
Enzyme activity (CYP2B6; icHep (JFC), incubation time 30 min, single wells): 50.8052 pmol/106 cells and 52.8459 pmol/106 cells and 41.4458 pmol/106 cells and 41.1487 pmol/106 cells
Enzyme activity (CYP2B6; icHep (JFC), incubation time 45 min, single wells): 61.1962 pmol/106 cells and 63.9863 pmol/106 cells and 63.4142 pmol/106 cells and 59.0445 pmol/106 cells
Enzyme activity (CYP2B6; icHep (JFC), incubation time 60 min, single wells): 56.6821 pmol/106 cells and 56.5302 pmol/106 cells and 54.8514 pmol/106 cells and 60.04 pmol/106 cells
Enzyme activity (CYP2B6; icHep (JFC), incubation time 90 min, single wells): 69.6732 pmol/106 cells and 73.6155 pmol/106 cells and 56.0547 pmol/106 cells and 49.9876 pmol/106 cells
Enzyme activity, Mean (CYP2B6; icHep (JFC)): 1.20 pmol/min/106 cells
Enzyme activity (CYP2B6; icHep (JFC), rate per single well): 1.14 pmol/min/106 cells and 1.25 pmol/min/106 cells and 1.17 pmol/min/106 cells

B1: claudin-1: human claudin-1 protein from E. coli cell-free synthesis, coated on the permeable support (protein, UniProt O95832 1-211, looked up)
Claudin-1: MANAGLQLLGFILAFLGWIGAIVSTALPQWRIYSYAGDNIVTAQAMYEGLWMSCVSQSTGQIQCKVFDSLLNLSSTLQATRALMVVGILLGVIAIFVATVGMKCMKCLEDDEVQKMRMAVIGGAIFLLAGLAILVATAWYGNRIVQEFYDPMTPVNARYEFGQALFTGWAAASLCLLGGALLCCSCPRKTTSYPTPRPYPKPAPSSGKDYV
hemi-lumen formation rate ([1]; PXB-cells (donor), supports individually coated with each claudin): 44.5 ± 4.8%
Open bile canalicular formation rate (%) Mean ([1]; icHep (JFC), claudin coating, mean of 3): 44.5%
Open bile canalicular formation rate (%) ([1]; icHep (JFC), claudin coating, single replicate): 50.0% and 41.5% and 42.0%
